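Following 48 hours of exposure in 96-well plates, responses at five concentrations were used to interpolate endpoints linearly. GI50: concentration for 50% inhibition of growth. TGI is the concentration that stops growth completely.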
Key:
Assay in all cases: NCI tumour cell line growth inhibition, 48 h
HOP-92 NSCLC = tested on: HOP-92 NSCLC
OVCAR-8 ovarian = tested on: OVCAR-8 ovarian
OVCAR-3 ovarian = tested on: OVCAR-3 ovarian
HCT-116 colon = tested on: HCT-116 colon
SK-OV-3 ovarian = tested on: SK-OV-3 ovarian
U251 CNS = tested on: U251 CNS
SF-539 CNS = tested on: SF-539 CNS
HT29 colon = tested on: HT29 colon
UACC-62 melanoma = tested on: UACC-62 melanoma
RXF 393 renal = tested on: RXF 393 renal

SMILES	TGI (HOP-92 NSCLC) [µM]	TGI (OVCAR-8 ovarian) [µM]	TGI (OVCAR-3 ovarian) [µM]	TGI (HCT-116 colon) [µM]	TGI (SK-OV-3 ovarian) [µM]	TGI (U251 CNS) [µM]	TGI (SF-539 CNS) [µM]	TGI (HT29 colon) [µM]	TGI (UACC-62 melanoma) [µM]	TGI (RXF 393 renal) [µM]	GI50 (HOP-92 NSCLC) [µM]	GI50 (OVCAR-8 ovarian) [µM]	GI50 (OVCAR-3 ovarian) [µM]	GI50 (HCT-116 colon) [µM]	GI50 (SK-OV-3 ovarian) [µM]	GI50 (U251 CNS) [µM]	GI50 (SF-539 CNS) [µM]	GI50 (HT29 colon) [µM]	GI50 (UACC-62 melanoma) [µM]	GI50 (RXF 393 renal) [µM]
O=C(CCc1cc(O)cc(O)c1)NCCCNC(=O)CCc1cc(O)cc(O)c1	> 100	> 100	> 100	> 100	> 100	> 100	> 100	> 100	> 100	> 100	–	–	–	–	–	–	–	–	–	–
O=[N+]([O-])c1ccc(NC(=S)N=Nc2c(O)[nH]c3ccc([N+](=O)[O-])cc23)cc1	35.2	> 100	47.5	46.3	41.8	50.8	> 100	65.6	49.1	37.1	–	–	–	–	–	–	–	–	–	–
CCC(CO)Nc1nc(NCc2ccccc2)c2ncn(C(C)C)c2n1 (stereo unspecified)	56.2	57.5	37.9	> 90.2	> 100	> 100	26.4	52.5	47	20.9	–	–	–	–	–	–	–	–	–	–
CC[C@H](Nc1nc(C)nc(N)c1C#N)c1nc2cccc(NCc3ccc(C(=O)NO)cc3)c2c(=O)n1-c1ccccc1	3.07	3.71	2.96	2.5	3.13	2.97	3.02	4.45	3.17	2.18	1.38	1.55	1.48	1.01	1.65	1.48	1.59	1.76	1.55	0.866
CCC(O)(Cc1ccc(OC)cc1)c1ccc(OC)cc1 (stereo unspecified)	> 100	> 100	> 100	> 100	> 100	> 100	> 100	> 100	> 100	> 100	–	–	–	–	–	–	–	–	–	–
CCCCSc1nsc(N(C(=O)c2ccccc2)C(=O)c2ccccc2)n1	75	> 100	61.1	92.6	> 100	> 100	64.3	82.5	60.1	> 100	–	–	–	–	–	–	–	–	–	–
CC1C(NNc2ccccc2)Oc2cc3c(cc2C1c1ccccc1O)OCO3 (stereo unspecified)	26.9	86.8	24.1	18.7	22.3	22.4	4.56	19.4	17.2	45.9	–	–	–	–	–	–	–	–	–	–
CCc1c(CNc2ccc(C(=O)NC(CC(=O)O)C(=O)O)cc2)ccc2nc(N)nc(N)c12 (stereo unspecified)	> 1000	> 1000	> 1000	> 1000	> 1000	> 1000	> 1000	> 1000	> 1000	> 1000	> 1000	–	52.8	–	> 1000	372	0.285	–	–	> 1000
CCCCC1=C(C(=O)N2CCOCC2)C2(OCCO2)C1=O	66.4	58.3	39.7	48.6	> 100	88.3	46.5	45.1	94.8	50.3	–	–	–	–	–	–	–	–	–	–
Cc1cc(S(=O)(=O)Nc2n[nH]c(-c3ccccn3)n2)c(S)cc1Cl	64.1	30.4	64.3	55.1	37.3	67.3	54.3	41.7	34.8	34.1	–	–	–	–	–	–	–	–	–	–
N#CC1(O)CCCCCCCCCCC1	> 100	> 100	> 100	> 100	> 100	> 100	> 100	> 100	> 100	> 100	–	–	–	–	–	–	–	–	–	–
COc1cc(C(c2c(O)c3ccccc3oc2=O)c2c(O)c3ccccc3oc2=O)cc(Br)c1O	26.2	32.3	30.9	32.7	35.8	31.9	33.7	37.1	29.6	39.6	–	–	–	–	–	–	–	–	–	–
CC1CCC2(NC1)OC1CC3C4CC=C5CC(OC6OC(CO)C(OC7OC(C)C(O)C(O)C7O)C(O)C6OC6OC(C)C(O)C(O)C6O)CCC5(C)C4CCC3(C)C1C2C (stereo unspecified)	21.1	8.31	4.09	4.91	19.5	9.37	8.75	15.6	7.71	26.5	–	–	–	–	–	–	–	–	–	–
CC(C)c1cccc(C(C)C)c1NC(=O)/C(CC(=O)CC(c1ccccc1)c1c(O)c2ccccc2oc1=O)=N/O (stereo unspecified)	> 100	> 100	> 100	> 100	> 100	> 100	> 100	> 100	> 100	> 100	–	–	–	–	–	–	–	–	–	–
Cc1cc(C)c(S(=O)(=O)N(CCCN)OCCCON(CCCN)S(=O)(=O)c2c(C)cc(C)cc2C)c(C)c1	5.27	11	4.26	3.17	3.58	3.08	3.77	3.22	6.09	15.7	–	–	–	–	–	–	–	–	–	–
N#C/C(=C/n1c(=S)[nH]c2ccc([N+](=O)[O-])cc21)C(N)=O	> 100	> 100	> 100	> 100	> 100	> 100	> 100	> 100	> 100	> 100	–	–	–	–	–	–	–	–	–	–
O=C(/C=C/C(=O)N1CCCC1)N1CCCC1	> 100	> 100	> 100	> 100	> 100	> 100	> 100	> 100	> 100	> 100	–	–	–	–	–	–	–	–	–	–
Cc1cc2c(O)c(c1)CN(CC(=O)O)Cc1cc(C)cc(c1O)CN(CC(=O)O)Cc1cc(C)cc(c1O)CN(CC(=O)O)C2	> 100	> 100	> 100	> 100	> 100	> 100	> 100	> 100	> 100	> 100	–	–	–	–	–	–	–	–	–	–
Nc1nc(Cl)cc(NCC2(O)CC2)n1	> 100	> 100	> 100	> 100	> 100	> 100	> 100	> 100	> 100	> 100	–	–	–	–	–	–	–	–	–	–
Cc1cc2ncn(C3CCCCO3)c2cc1C (stereo unspecified)	> 100	> 100	> 100	> 100	> 100	> 100	> 100	> 100	> 100	> 100	–	–	–	–	–	–	–	–	–	–
c1ccc2c(c1)Sc1nccc3ccnc-2c13	> 100	> 100	> 100	> 100	> 100	> 100	> 100	65.5	> 100	> 100	–	–	–	–	–	–	–	–	–	–
O=C1C=CC(=O)c2c(O)c(N3CCC[C@H]3CO)c(Cl)c(O)c21	3.13	> 6.11	> 7.45	3.3	> 10	> 10	> 10	> 10	4.88	3.46	–	–	–	–	–	–	–	–	–	–
CSc1cc(=O)n2c3ccccc3c3ccnc1c32	> 100	> 100	> 100	> 100	97.5	> 100	> 71.4	> 100	> 100	> 100	–	–	–	–	–	–	–	–	–	–
C[C@]12CCC(=O)[C@@H](CCC3=CC(=O)C=CC3=O)[C@@H]1CCC2=O	> 100	> 69.5	36	> 50.5	63.9	> 47.3	35.7	82.2	44.1	5.43	–	–	–	–	–	–	–	–	–	–
O=c1[nH]c2nc3ccccc3nc2[nH]c1=O	> 100	> 100	> 100	> 100	> 100	> 100	> 100	> 100	> 100	> 100	–	–	–	–	–	–	–	–	–	–
CCn1c2ccc(C(=O)CCCN3CCCCC3)cc2c2cc(C(=O)CCCN3CCCCC3)ccc21	30.3	6.6	5.3	10.8	13.4	4.73	3.37	4.2	38.8	7.31	–	–	–	–	–	–	–	–	–	–
O=c1nc2c(c(-c3ccc(Br)cc3)[nH]1)COC/C2=C\c1ccc(Br)cc1	> 50	> 50	> 50	> 50	> 50	> 50	> 50	> 50	> 50	> 50	–	–	–	–	–	–	–	–	–	–
COc1ccc(Nc2nc(N)c(C(=O)c3c[nH]c4ccccc34)s2)cc1	29.3	> 100	4.14	6.58	> 100	> 100	> 36.9	4.57	> 100	11.4	–	–	–	–	–	–	–	–	–	–

Reference: PubChem BioAssay (NCI)
